Experimental data: PubChem BioAssay (NCI)
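Grown in 96-well plates, cells were treated for 48 hours with each compound at five concentrations. Insufficient inhibition: endpoint recorded as highest concentration tested. GI50 is the concentration that inhibits growth by half. TGI marks complete inhibition of growth.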

Columns and labels:
Assay in all cases: DTP human tumour cell line panel, 48 h
[1] = system: SF-539 CNS
[2] = system: NCI-H226 lung
[3] = system: SK-OV-3 ovarian
[4] = system: MDA-MB-435
[5] = system: MCF7 breast
[6] = system: HT29 colon
[7] = system: NCI/ADR-RES ovarian
[8] = system: SN12C renal
[9] = system: M14 melanoma
[10] = system: SK-MEL-28 melanoma
[11] = system: RXF 393 renal
[12] = system: HL-60(TB) leukemia
[13] = system: BT-549 breast
[14] = system: UACC-62 melanoma
[15] = system: TK-10 renal
[16] = system: K-562 leukemia
[17] = system: T-47D breast
[18] = system: MALME-3M melanoma
[19] = system: COLO 205 colon
[20] = system: NCI-H460 lung
[21] = system: HCT-15 colon
[22] = system: LOX IMVI melanoma
[23] = system: OVCAR-8 ovarian
[24] = system: SF-268 CNS
[25] = system: U251 CNS
[26] = system: NCI-H522 lung
[27] = system: MOLT-4 leukemia
[28] = system: 786-0 renal
[29] = system: EKVX NSCLC
[30] = system: UACC-257 melanoma
[31] = system: CCRF-CEM leukemia
[32] = system: DU-145 prostate
[33] = system: HOP-62 NSCLC
[34] = system: OVCAR-3 ovarian
[35] = system: SW-620 colon
[36] = system: SF-295 CNS
[37] = system: PC-3 prostate
[38] = system: ACHN renal
[39] = system: HCC-2998 colon
[40] = system: HS 578T breast
[41] = system: OVCAR-4 ovarian
[42] = system: SNB-19 CNS
[43] = system: SNB-75 CNS
[44] = system: IGROV1 ovarian
[45] = system: MDA-MB-231 breast
[46] = system: CAKI-1 renal
[47] = system: KM12 colon
[48] = system: SK-MEL-2 melanoma
[49] = system: NCI-H23 lung
[50] = system: A549 NSCLC
[51] = system: HOP-92 NSCLC
[52] = system: UO-31 renal
[53] = system: OVCAR-5 ovarian
[54] = system: A498 renal
[55] = system: SK-MEL-5 melanoma

Structure (SMILES): COc1ccc(CC(C)=C(c2ccc(OCCN3CCCCCC3)cc2)c2ccc(OCCN3CCCCCC3)cc2)cc1
- GI50 [1]: 97.8 nM
- TGI [1]: 194 nM
- GI50 [2]: 531 nM
- TGI [2]: 1420 nM
- GI50 [3]: 612 nM
- TGI [3]: 1240 nM
- GI50 [4]: 89.1 nM
- TGI [4]: 166 nM
- GI50 [5]: 87.2 nM
- TGI [5]: 187 nM
- GI50 [6]: 84.3 nM
- TGI [6]: 181 nM
- GI50 [7]: 655 nM
- TGI [7]: 1410 nM
- GI50 [8]: 657 nM
- TGI [8]: 1350 nM
- GI50 [9]: 88.6 nM
- TGI [9]: 171 nM
- GI50 [10]: 91.1 nM
- TGI [10]: 166 nM
- GI50 [11]: 348 nM
- TGI [11]: 1050 nM
- GI50 [12]: 99 nM
- TGI [12]: 229 nM
- GI50 [13]: 681 nM
- TGI [13]: 1370 nM
- GI50 [14]: 98.7 nM
- TGI [14]: 199 nM
- GI50 [15]: 729 nM
- TGI [15]: 1470 nM
- GI50 [16]: 98.7 nM
- TGI [16]: 220 nM
- GI50 [17]: 219 nM
- TGI [17]: 955 nM
- GI50 [18]: 90 nM
- TGI [18]: 171 nM
- GI50 [19]: 94.4 nM
- TGI [19]: 182 nM
- GI50 [20]: 100 nM
- TGI [20]: 186 nM
- GI50 [21]: 121 nM
- TGI [21]: 382 nM
- GI50 [22]: 87.5 nM
- TGI [22]: 161 nM
- GI50 [23]: 607 nM
- TGI [23]: 1450 nM
- GI50 [24]: 474 nM
- TGI [24]: 1150 nM
- GI50 [25]: 107 nM
- TGI [25]: 259 nM
- GI50 [26]: 443 nM
- TGI [26]: 1200 nM
- GI50 [27]: 133 nM
- TGI [27]: 406 nM
- GI50 [28]: 83.8 nM
- TGI [28]: 159 nM
- GI50 [29]: 615 nM
- TGI [29]: 1300 nM
- GI50 [30]: 108 nM
- TGI [30]: 262 nM
- GI50 [31]: 158 nM
- TGI [31]: 609 nM
- GI50 [32]: 275 nM
- TGI [32]: 879 nM
- GI50 [33]: 626 nM
- TGI [33]: 1280 nM
- GI50 [34]: 113 nM
- TGI [34]: 239 nM
- GI50 [35]: 89 nM
- TGI [35]: 179 nM
- GI50 [36]: 300 nM
- TGI [36]: 861 nM
- GI50 [37]: 265 nM
- TGI [37]: 860 nM
- GI50 [38]: 135 nM
- TGI [38]: 374 nM
- GI50 [39]: 88.1 nM
- TGI [39]: 182 nM
- GI50 [40]: 175 nM
- TGI [40]: 757 nM
- GI50 [41]: 432 nM
- TGI [41]: 1110 nM
- GI50 [42]: 232 nM
- TGI [42]: 817 nM
- GI50 [43]: 487 nM
- TGI [43]: 1160 nM
- GI50 [44]: 370 nM
- TGI [44]: 1020 nM
- GI50 [45]: 176 nM
- TGI [45]: 487 nM
- GI50 [46]: 345 nM
- TGI [46]: 930 nM
- GI50 [47]: 240 nM
- TGI [47]: 823 nM
- GI50 [48]: 756 nM
- TGI [48]: 1500 nM
- GI50 [49]: 709 nM
- TGI [49]: 1410 nM
- GI50 [50]: 343 nM
- TGI [50]: 1020 nM
- GI50 [51]: 254 nM
- TGI [51]: 986 nM
- GI50 [52]: 308 nM
- TGI [52]: 929 nM
- GI50 [53]: 631 nM
- TGI [53]: 1260 nM
- GI50 [54]: 513 nM
- TGI [54]: 1200 nM
- GI50 [55]: 119 nM
- TGI [55]: 312 nM
